Source: US10420740B2, “Baclofen formulations and methods for making same” (SAOL INTERNATIONAL LIMITED, priority 2011, dated 2019)

Legend:
[1] = Comparison of R isomer and racemic baclofen for solubility, stability and pH; assay type: physicochemical; conditions: data not shown
Text: Accordingly, the Examples presented herein, which employed a racemic mixture, are also applicable to the L-isomer […].

[2] = pH profile of baclofen prior to steam sterilization and 4-CPP impurity levels post-steam sterilization; assay type: physicochemical; set-up: unit not given here; conditions: 4-CPP post-steam sterilization
Text: In some embodiments, the present application provides methods and baclofen formulations having low 4-CPP concentrations by controlling the pH of the baclofen solution prior to steam sterilization, where the pH is in the range of between about 4.0 to about 7.0, the amount of 4-CPP formed is reduced, when the pH is raised to between about 5.0 to about 7.0 after heat sterilization. In some embodiments, the 4-CPP impurity levels are low at a pH of between about 4.0 to about 4.5. The pH profile of the baclofen, prior to steam sterilization and the 4-CPP impurity levels post-steam sterilization are shown below in Table A.

[3] = Stability of baclofen in sulfate or phosphate solutions over 9 weeks; assay type: physicochemical; conditions: phosphate or sulfate buffer with NaCl, pH 6, aqueous buffer
Description: The formulations were stored at 37° C., ambient temperature, and 4° C. over 9 weeks. pH, drug concentration, and 4-CPP were measured. Physical properties, such as particulate, precipitation, color and the like were observed.

[4] = reported by some sources; equilibrium with particulate baclofen present; cited from earlier work
[5] = therapeutically effective intrathecal concentrations, injected into the intrathecal space of a patient; cited from earlier work
[6] = Rotarod (impaired motor skills) after intrathecal delivery to rats; assay type: in vivo; conditions: equivalent doses, data not shown
Description: Studies were performed to examine the effects of different baclofen compositions delivered intrathecally to rats. In one study, the therapeutic response mediated by spinal GABA-b receptors (thermal analgesia) with a nonspecific side effect (impaired motor skills on the rotarod) caused by L or DL-baclofen were compared. Equivalent doses of L-baclofen and DL-baclofen (adjusted to deliver the same amount of L-baclofen) produced very similar analgesic activity in the thermal nociception assay, while D-baclofen was ineffective (data not shown).

**Q.** For `NC[C@H](CC(=O)O)c1ccc(Cl)cc1` (single isomer, unassigned) [R isomer], which “solubility, stability and pH relative to racemic mixtures of baclofen” value [1] is on record?
**A.** behave essentially the same

**Q.** Which “Impurity Level of 4-CPP” value ([2]; pH 4.0 prior to steam sterilization) does the source give for `NCC(CC(=O)O)c1ccc(Cl)cc1` (stereo not shown) [Baclofen, 4-amino-3-(p-chlorophenyl)butyric acid] here?
**A.** 1.7

**Q.** And the “Impurity Level of 4-CPP” value ([2]; pH 4.2 prior to steam sterilization)?
**A.** 1.3

**Q.** What about the “Impurity Level of 4-CPP” value ([2]; pH 4.4 prior to steam sterilization) of the same compound?
**A.** 1.1

**Q.** And the “Impurity Level of 4-CPP” value ([2]; pH 4.6 prior to steam sterilization)?
**A.** 0.7

**Q.** And the “Impurity Level of 4-CPP” value ([2]; pH 4.8 prior to steam sterilization)?
**A.** 0.5

**Q.** And the “Impurity Level of 4-CPP” value ([2]; pH 5.0 prior to steam sterilization)?
**A.** 0.4

**Q.** What about the “Impurity Level of 4-CPP” value ([2]; pH 5.2 prior to steam sterilization) of the same compound?
**A.** 0.4

**Q.** And the “Impurity Level of 4-CPP” value ([2]; pH 5.4 prior to steam sterilization)?
**A.** 0.5

**Q.** What about the “Impurity Level of 4-CPP” value ([2]; pH 5.6 prior to steam sterilization) of the same compound?
**A.** 0.6

**Q.** And the “Impurity Level of 4-CPP” value ([2]; pH 5.8 prior to steam sterilization)?
**A.** 0.7

**Q.** And the “Impurity Level of 4-CPP” value ([2]; pH 6.0 prior to steam sterilization)?
**A.** 0.8

**Q.** What about the “Impurity Level of 4-CPP” value ([2]; pH 6.2 prior to steam sterilization) of the same compound?
**A.** 0.9

**Q.** What about the “Impurity Level of 4-CPP” value ([2]; pH 6.4 prior to steam sterilization) of the same compound?
**A.** 1.1

**Q.** What about the “Impurity Level of 4-CPP” value ([2]; pH 6.6 prior to steam sterilization) of the same compound?
**A.** 1.2

**Q.** And the “Impurity Level of 4-CPP” value ([2]; pH 6.8 prior to steam sterilization)?
**A.** 1.4

**Q.** What about the “Impurity Level of 4-CPP” value ([2]; pH 7.0 prior to steam sterilization) of the same compound?
**A.** 1.5

**Q.** What about the solubility at 9 weeks [3] of the same compound?
**A.** ≥ 4000 µg/mL

**Q.** And the “upper limit on room temperature aqueous solubility” value [4]?
**A.** about 4 mg/mL

**Q.** What about the “plasma concentrations, intrathecal relative to oral administration” value [5] of the same compound?
**A.** 100 times less

**Q.** For `NC[C@H](CC(=O)O)c1ccc(Cl)cc1` [D-baclofen], which “motor impairment on the rotarod” value [6] is on record?
**A.** no significant effect

**Q.** Which “motor impairment on the rotarod” value [6] does the source give for `NC[C@H](CC(=O)O)c1ccc(Cl)cc1` [L-baclofen] here?
**A.** statistically less motor impairment on the rotarod than DL-baclofen
